Values belong to the compound of their own block, whether it stands above or below them.
Experiments:
[1] = test system: UNLipase; assay: Esterification of fatty acid mixture from pressure-split beef tallow (PFA); format: biochemical, Geotrichum candidum; conditions: HPLC or GC; pentadecanoic acid internal standard
Protocol: The esterification of fatty acid mixtures was evaluated using typical fatty acid mixtures derived from pressure-split beef tallow, henceforth referred to as PFA. Samples of PFA were spiked with pentadecanoic acid as an internal standard. The resulting products were analyses by either HPLC (reverse phase C-18 column) or GC (FFAP capillary column).

[2] = test system: Geotrichum candidum mutant 9-2; assay: UNLipase production by mutant in culture medium; format: cell-based
Protocol: It was determined early in our work that having fat or oil in the medium induced other lipases produced by Geotrichum strains. Thus fat or oil was eliminated from the medium. Then improvements for Bacto-Peptone were sought. A series of peptones or other organic nitrogen sources were tested including soy peptone, trypticase® (BBL) peptone, casamino acids, NZ amine® (Sheffield Products) and casein.
Next, the salt constituents were examined in the standard medium. […] The inclusion of these two salts in the medium gave a doubling of measured hydrolyric activity when assayed using the standard assay. […] Fifty mls of this medium are placed in 500 ml baffled flasks (Bellco) then shaken at 250 rpms at 25°-30° C.
The next goal was to find a mutant with enhanced productivity. Thus the mutagenesis of mutant 9-2 was undertaken as described above but the selection protocol was altered. In this case, after the 8° C. recovery period the mutant suspensions were placed in 50 ml sterile test tubes and frozen at -55° C. The period of freezing was then interrupted by thawing periods (about 4 hours) and followed by freezing at -55° C. Mutants were screened for lipase activity and selectivity. One mutant, 9-2-3-9, survived a cycle of 3 weeks of freezing which had been interrupted by 3 thaw cycles. The mutant 9-2-3-9 was distinctly different from its parent (9-2) in its colony morphology when grown on nutrient agar. The colony type was much more aerial than 9-2.
The mutant 9-2 was grown in the medium described above. Fifty mls were added to 500 ml baffled flasks (Bellco) and placed on a shaker maintained at 30° C. and shaken at 250 rpms. Production reaches a peak at about 30 hours, then declines slightly and remains low. The enzyme was harvested at 30 hours for a series of hydrolyric tests. The collection of the enzyme involves centrifugation of the broth at 5000 rpms in the Beckman GSA rotor for 10 minutes. The cell free broth was then decanted from the cell pellet. In some cases, high activity suspension were produced by a 70% ammonium sulfate precipitation of the broth.

[3] = test system: UNLipase; assay: Hydrolysis of simple (methyl) esters with UNLipase; format: biochemical, Geotrichum candidum; conditions: about 50 mM in isooctane, 37 degrees C, 4 hours
Text: Simple esters were subjected to UNLipase to determine the scope and extent of UNLipase selectivity. The esters evaluated were methyl esters of propionic, caprylic, nonanoic, caproic, palmitic and oleic acids. […] Approximately 2% of the methyl palmitate reacted, whereas 67% of the methyl oleate was hydrolyzed.

[4] = test system: UNLipase; assay: Fatty acid selectivity of lipase esterification; format: biochemical, Geotrichum candidum
Protocol: These preparations contained 50-200 mg of fatty acid, 0.5 ml concentrated broth, 0.5 ml water (buffer) and 100-300 ul of alcohol. Reactions were run at either 27, 30 or 37 degrees Celsius for 16 to 24 hours. The reaction was stopped by adding 2.0 ml ether.
Fatty acid and ester were extracted into ether and evaluated by thin layer chromatography. The esterification of oleic acid with various alcohols is present in Table 1.
The fatty acid selectivity of the lipase in esterification reactions was also evaluated in the manner described above, with results analyzed by thin layer chromatography, GC, HPLC and IR.

[5] = test system: G. candidum lipase; conditions: cited from earlier work
[6] = test system: UNLipase; assay: Hydrolysis of pure triglycerides with UNLipase; format: biochemical, Geotrichum candidum; conditions: 1 hour at 37 degrees C; for ratio of hydrolysis for triolein:tripalmitolein:trilinolein: pure triglyceride in isooctane, relative to triolein 100
Protocol: The Enzyme was harvested using centrifugation at 5000 rpms, for example, in a Beckman GSA rotor for 10 minutes. This cell-free preparation was used to determine hydrolysis, esterification and transesterification properties.
Substrates were prepared in isooctane (2,2,4-trimethylpentane) at about 0.8 grams per 20 ml solvent. Assay procedures for determining lipase activity were those described by Kwon, D. Y. and Rhee, J. S., J. Amer. Oil Chem Soc. 63:89-92(1986). One modification was to perform some assays for one hour under nonagitated conditions to avoid difficulties in reproducing agitation rates.
Hydrolysis was greatest for triolein, with the ratio of hydrolysis for triolein: tripalmitolein:trilinolein of 100:65:82. […] The ratio of hydrolysis of triolein to tripalmitin was approximately 33:1.

[7] = test system: UNLipase; assay: Effect of metal ions on UNLipase; format: biochemical, Geotrichum candidum; conditions: 25 mM concentration
[8] = added to culture medium of mutant 9-2

ester formation in PFA mixture [1]: not esterified
Compound: CCCCCCCCCCCCCCC(=O)O [pentadecanoic acid]

Compound: OC[C@H]1O[C@H](O[C@H]2[C@H](O)[C@@H](O)C(O)O[C@@H]2CO)[C@H](O)[C@@H](O)[C@@H]1O (mixture of isomers) [maltose]
effect on UNLipase production [2, 8]: no effect

methyl ester hydrolyzed [3]: Approximately 2%
Compound: CCCCCCCCCCCCCCCC(=O)OC [methyl palmitate]

Compound: C=CCCCCCCCCC(=O)O [Undecenoic acid, 10-undecenoic acid]
effect on esterification of oleic acid [4]: inhibitor

Compound: CCC(=O)OC [methyl ester of propionic acid]
hydrolysis by UNLipase [3]: not hydrolyzed

Compound: O=P([O-])(O)O.[K+] [KH2 PO4]
effect on UNLipase production [2, 8]: benefit

ester formation in PFA mixture [1]: not esterified
Compound: CCCCCCCCCCCCCCCC(=O)O [palmitic]

ester formation in PFA mixture [1]: detected
Compound: CCCCC/C=C\C/C=C\CCCCCCCC(=O)O [Linoleic]

Compound: CCCCCCCC/C=C\CCCCCCCC(=O)OC [methyl oleate]
hydrolytic rate relative to palmitic methyl ester [5]: 10 times | methyl ester hydrolyzed [3]: 67%

ester formation in PFA mixture [1]: detected
Compound: CCCCCC/C=C\CCCCCCCC(=O)O [Palmitoleic]

Compound: CCCCCCCC/C=C\CCCCCCCC(=O)OCC(COC(=O)CCCCCCC/C=C\CCCCCCCC)OC(=O)CCCCCCC/C=C\CCCCCCCC [triolein]
ratio of hydrolysis for triolein:tripalmitolein:trilinolein [6]: 100

ratio of hydrolysis for triolein:tripalmitolein:trilinolein [6]: 82
Compound: CCCCC/C=C\C/C=C\CCCCCCCC(=O)OCC(COC(=O)CCCCCCC/C=C\C/C=C\CCCCC)OC(=O)CCCCCCC/C=C\C/C=C\CCCCC [trilinolein]

Compound: O=C(CO)[C@@H](O)[C@H](O)[C@H](O)CO [fructose]
effect on UNLipase production [2, 8]: inhibited

hydrolysis by UNLipase [3]: not hydrolyzed
Compound: CCCCCCCC(=O)OC [methyl ester of caprylic acid]

reactivity with UNLipase ([6]; saturated fatty acid triglycerides): showed any reactivity
Compound: CCCCCCCCCCCCCCCC(=O)OCC(COC(=O)CCCCCCCCCCCCCCC)OC(=O)CCCCCCCCCCCCCCC [tripalmitin]

Compound: CCCCCCCCCCCCCCCCCC(=O)O [Stearic]
ester formation in PFA mixture [1]: not esterified

hydrolysis by UNLipase [3]: not hydrolyzed
Compound: CCCCCCCCC(=O)OC [methyl ester of nonanoic acid]

Compound: OC[C@@H](O)[C@@H](O)[C@H](O)[C@H](O)CO [mannitol]
effect on UNLipase production [2, 8]: no effect

Compound: OC[C@H]1O[C@@](CO)(O[C@H]2O[C@H](CO)[C@@H](O)[C@H](O)[C@H]2O)[C@@H](O)[C@@H]1O [sucrose]
effect on UNLipase production [2, 8]: inhibited

Compound: [Ca+2] [calcium ions]
effect on UNLipase [7]: inhibited | effect on UNLipase production [2, 8]: did not enhance

Compound: O=S(=O)([O-])[O-].[Mg+2] [MgSO4]
effect on UNLipase production ([2]; MgSO4 concentration increased to 0.5%): no further enhancement | effect on UNLipase production [2, 8]: benefit

ratio of hydrolysis for triolein:tripalmitolein:trilinolein [6]: 65
Compound: CCCCCC/C=C\CCCCCCCC(=O)OCC(COC(=O)CCCCCCC/C=C\CCCCCC)OC(=O)CCCCCCC/C=C\CCCCCC [tripalmitolein]

Compound: [Mg+2] [magnesium ions]
effect on UNLipase [7]: activated

Compound: O=C[C@H](O)[C@@H](O)[C@H](O)[C@H](O)CO [glucose]
effect on UNLipase production [2, 8]: inhibited

Compound: CCCCCCCCCCCCCC(=O)O [myristic]
ester formation in PFA mixture [1]: not esterified

ester formation in PFA mixture [1]: detected
Compound: CCCCCCCC/C=C\CCCCCCCC(=O)O [Oleic, oleic acid]

— US5591615A, “Mutant of Geotrichum candidum which produces novel enzyme system to selectively hydrolyze triglycerides” (priority 1995, dated 1997)
